Patent publication US8044057B2, “Methods for suppressing an immune response or treating a proliferative disorder” (The United States of America as represented by the …, priority 2003, dated 2011)

What was measured:
[1] = system: AKT; assay: Western blot of phospho-Akt S473 in A549 cells; type: cell-based, human
Description: A549 cells were treated without or with 100 mcM LY303511, 200 ng/ml rapamycin, or 50 nM wortmannin in serum free media for 1 hour before addition of E. coli lipopolysaccharide (LPS), […] and interferon (IFN)-γ, 100 U/ml (LPS/IFN-γ or “L/I”). Cells were homogenized and the indicated proteins (see Table 1) were detected by Western blot. Western blots are from the same experiment, and representative of three experiments.
Measurement of protein phosphorylation: A549 cells were incubated in serum-free medium without or with inhibitors for 1 hour, as indicated, before incubation for 30 minutes with a mixture of LPS, 100 μg/ml (Sigma; St. Louis, Mo.) and IFN-γ, 100 U/ml (Roche; Nutley, N.J.). PASM cells were incubated in serum-free medium without or with inhibitors for 24 h as indicated, before incubation for 30 min with 10% FBS. A549 or PASM cells were washed once with cold PBS and incubated for 15 minutes on ice ih lysis buffer (20 mM Tris pH 8.0, 1% Nonidet P-40, 1 mM EDTA, 5 mM benzamidine, aprotinin, 10 μg/ml, leupeptin, 10 μg/ml, trypsin soybean inhibitor, 1 mM PMSF, 50 mM sodium fluoride, 100 μM sodium orthovanadate, and 1: 100 Sigma phosphatase inhibitor set I containing cantharidin, microcystin LR and bromotetramizole). […] Integrated band densities were quantified using Scion Image beta 3b software.

[2] = system: A549 cells; assay: A549 cell count after 24 hours with inhibitors; type: cell-based, human; conditions: 100 μM LY303511, rapamycin 200 ng/ml, 200 nM wortmannin, 100 μM LY294002
Description: FIG. 2A is a bar graph showing LY303511 blocks cell proliferation, DNA synthesis, and cell cycle progression in A549 cells. A. A549 cells (80,000 cells per 35-mm dish) were grown for 1 day in medium with FBS before the addition of 0.1% DMSO, 100 μM LY303511, rapamycin, 200 ng/ml, 200 nM wortmannin, or 100 μM LY294002 for 24 hours. Cells were then incubated with trypsin, collected, and counted. Data are the means of cells/well×10^−4 ±SEM from duplicate assays in three experiments. *p<0.05 by Student's t-test. FIG. 2B is a line graph from results obtained when A549 cells (4,000 per well) in 96-well plates were grown in medium with FBS for 24 h before the addition of […] plus 0-200 μM LY303511 without or with rapamycin, 200 ng/ml, or with rapamycin alone (0-200 ng/ml). BrDU incorporation (absorbance at 490/465) was measured by in situ ELISA as per the manufacturer's instructions (BrDU detection kit, Roche). For each experiment, BrDU in cells incubated with inhibitors was expressed as a percentage of that in cells treated with 0.2% DMSO control (% control). Mean absorbance measures for controls=100% in each experiment were 0.9±0.3, 0.8±0.3, and 0.8±0.3. […]
Additionally, A549 cells (80,000 cells per well), were grown for 24 hours before addition of inhibitors (FIG. 2A). After 24 hours, trypan blue-stained cells were counted using a hemocytometer. […]

[3] = system: A549 cells; assay: BrDU incorporation (in situ ELISA) in A549 cells; type: cell-based, human; conditions: 24 hours, 0-200 μM LY303511 without or with rapamycin 200 ng/ml
[4] = system: primary mouse peritoneal macrophages; assay: LPS-induced cytokine production in peritoneal macrophages; type: cell-based; conditions: LPS 1 μg/ml; 1~100 μM; 24 hours
Description: FIG. 7A-F are bar graphs showing that LY303511 inhibits lipopolysaccharide (LPS)—induced cytokine production or STAT1 activity in primary mouse peritoneal macrophages or A549 cells. Wild-type mice from Jackson (Jac) and Taconic (Tac) were used. Peritoneal macrophages were harvested three days after thioglycolate injection. Cells were incubated for three days in 2% FCS RPMI. The supernatant was collected after stimulation with LPS 1 μg/ml with or without LY 303511 (1˜100 μM) or DMSO for 24 hours. Cytokines (interleukin (IL)-12p70, tumor necrosis factor (TNF)-α, interferon (IFN)-γ, MCP-1, IL-10, IL-6) were measured in cell supematants. […] Thus, LY303511 clearly can reduce cytokine expression, and has an anti-inflammatory effect.
Peritoneal macrophages were harvested three days after thioglycolate injection. Cells were incubated for three days in 2% FCS RPM. The supernatant was collected after stimulation with LPS 1 μg/ml with or without LY 303511 (1˜100 μM) or DMSO for 24 hours. Cytokines (interleukin (IL)-12p70, tumor necrosis factor (TNF)-α, interferon (IFN)-γ, monocyte chemoattractant protein (MCP)-1, IL-10, IL-6) were measured in cell supernatants. […] Thus, LY303511 clearly can reduce cytokine expression, and has an anti-inflammatory effect.

In the case of O=c1cc(N2CCNCC2)oc2c(-c3ccccc3)cccc12 [LY303511, 2-(4-piperazinyl)-8-phenyl-4H-1-benzopyran-4-one], the “inhibition of phosphorylation of Akt” value ([1]; even at 100 mcM) is reported as “does not inhibit phosphorylation of Akt”, the “phosphorylation of AKT (S473)” value ([1]; inhibitors 1 hour before LPS/IFN-γ, Western blot) is reported as “increase phosphorylation of AKT” and the “cell proliferation (cell number)” value [2] is reported as “significant inhibitory effect”. The “BrDu uptake (DNA synthesis, proliferation)” value [3] was “concentration-dependent reduction” and the “LPS-induced cytokines (IL-12p70, TNF-α, IFN-γ, MCP-1, IL-10, IL-6) in cell supernatants” value [4] was “dose-dependent reduction of all six cytokines”.
